Results from US11548868B2, “Heterocyclic compounds, compositions comprising heterocyclic compound, and methods of use thereof” (JS INNOPHARM (SHANGHAI) LTD, priority 2017, dated 2023).

Experiments:
[1] = biological target: T1, IDO1 in Hela cancer cells (Homo sapiens, UniProt P14902); assay: IDO1 Cellular Assay (kynurenine production in IFN-γ stimulated Hela cancer cells); format: cell-based; conditions: human IFN-γ 50 ng/mL, 48 hours incubation, kynurenine at 490 nm
T1 construct: endogenous in cells; host or cells: Hela cancer cells stimulated with human IFN-γ
T1 sequence (P14902 whole entry): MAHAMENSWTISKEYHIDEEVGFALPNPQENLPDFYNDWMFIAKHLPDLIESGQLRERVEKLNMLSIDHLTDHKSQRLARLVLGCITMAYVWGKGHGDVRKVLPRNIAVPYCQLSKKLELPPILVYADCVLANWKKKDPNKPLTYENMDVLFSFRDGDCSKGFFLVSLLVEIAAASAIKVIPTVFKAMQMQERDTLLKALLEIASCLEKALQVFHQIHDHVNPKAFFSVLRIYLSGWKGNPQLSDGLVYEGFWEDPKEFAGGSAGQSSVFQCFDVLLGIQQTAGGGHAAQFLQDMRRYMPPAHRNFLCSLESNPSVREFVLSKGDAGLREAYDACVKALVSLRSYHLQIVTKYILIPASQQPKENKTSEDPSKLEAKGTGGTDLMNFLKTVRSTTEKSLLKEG
Outline: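 HeLa cells stimulated with 50 ng/mL IFN-γ (final) and treated 48 h with compound (0–25 μM final, 0.25% DMSO). Supernatant kynurenine measured after TCA hydrolysis and p-dimethylaminobenzaldehyde reaction at 490 nm; inhibition vs DMSO control, IC50 by non-linear regression.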

[2] = biological target: T2, TDO2 in A172 cancer cells (Homo sapiens, UniProt P48775); assay: TDO2 Cellular Assay (kynurenine production in A172 cancer cells); format: cell-based; conditions: L-Trp 1 mM, 24 hours incubation, kynurenine at 490 nm
T2 construct: endogenous in cells; host or cells: A172 cancer cells
T2 sequence (P48775 whole entry): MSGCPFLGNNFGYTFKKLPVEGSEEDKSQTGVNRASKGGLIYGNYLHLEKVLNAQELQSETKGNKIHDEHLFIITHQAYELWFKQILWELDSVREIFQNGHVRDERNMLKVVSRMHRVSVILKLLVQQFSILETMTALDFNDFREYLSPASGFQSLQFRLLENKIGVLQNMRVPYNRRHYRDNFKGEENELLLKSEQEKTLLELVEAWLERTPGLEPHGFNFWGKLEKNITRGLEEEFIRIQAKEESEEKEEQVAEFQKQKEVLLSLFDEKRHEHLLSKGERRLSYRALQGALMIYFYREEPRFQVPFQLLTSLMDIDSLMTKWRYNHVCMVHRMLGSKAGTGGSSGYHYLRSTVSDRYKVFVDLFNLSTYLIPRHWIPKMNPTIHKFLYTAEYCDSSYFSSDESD
Outline: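 A172 cells seeded overnight, then given 1 mM L-Trp and test compound (0–25 μM, 0.25% DMSO) for 24 h at 37 °C. Supernatant treated with TCA at 50 °C to convert N-formylkynurenine, kynurenine detected with p-dimethylaminobenzaldehyde at 490 nm; IC50 by non-linear regression of inhibition versus DMSO control.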

Q: With `O=S(=O)(N[C@H]1[C@@H]2C[C@@](O)(c3cc(Cl)cc4[nH]ncc34)C[C@@H]21)c1ccccc1` [Example 95, N-((1R,3r,5S,6r)-3-(6-chloro-1H-indazol-4-yl)-3-hydroxybicyclo[3.1.0]hexan-6-yl)benzenesulfonamide] as the compound, how does the IC50 [1] read?
A: The IC50 was > 5 µM.

Q: And the IC50 [2]?
A: Its IC50 is ≤ 0.5 µM.

Q: `CC1(C)[C@H]2CN(c3c(C4CC4)ccc4cncn34)C[C@H]2CN1S(C)(=O)=O` (racemic) [Example 55, Racemic-6-cyclopropyl-5-((3aR,6aS)-4,4-dimethyl-5-(methylsulfonyl)hexahydropyrrolo[3,4-c]pyrrol-2(1H)-yl)imidazo[1,5-a]pyridine] was tested. Which IC50 [1] did it give?
A: Its IC50 is > 5 µM.

Q: What about the IC50 [2] of the same compound?
A: The IC50 was > 5 µM.

Q: With `O=C(N[C@H]1[C@@H]2C[C@@](O)(c3cc(Cl)cc4[nH]ncc34)C[C@@H]21)c1cccc(-c2ccccc2)c1` [Example 171, N-((1R,3r,5S,6r)-3-(6-chloro-1H-indazol-4-yl)-3-hydroxybicyclo[3.1.0]hexan-6-yl)-[1,1′-biphenyl]-3-carboxamide] as the compound, how does the IC50 [1] read?
A: Its IC50 is 0.5 to 1 µM.

Q: What about the IC50 [2] of the same compound?
A: The IC50 was ≤ 0.5 µM.

Q: How did the IC50 [1] turn out when `N#Cc1cccc(C(=O)N[C@H]2[C@@H]3C[C@@](O)(c4cc(Cl)cc5[nH]ncc45)C[C@@H]32)c1` [Example 144, N-((1R,3r,5S,6r)-3-(6-chloro-1H-indazol-4-yl)-3-hydroxybicyclo[3.1.0]hexan-6-yl)-3-cyanobenzamide] was run?
A: The IC50 was ≤ 0.5 µM.

Q: What about the IC50 [2] of the same compound?
A: The IC50 was ≤ 0.5 µM.

Q: Which IC50 [1] does the source give for `O=S(=O)(CC(F)(F)F)N[C@H]1[C@@H]2C[C@@](O)(c3cc(Cl)cc4[nH]ncc34)C[C@@H]21` [Example 139, N-((1R,3r,5S,6r)-3-(6-chloro-1H-indazol-4-yl)-3-hydroxybicyclo[3.1.0]hexan-6-yl)-2,2,2-trifluoroethanesulfonamide] here?
A: Its IC50 is 0.5 to 1 µM.

Q: And the IC50 [2]?
A: Its IC50 is ≤ 0.5 µM.

Q: How did the IC50 [1] turn out when `O[C@@H]1C[C@@H]2C[C@@](O)(c3cc(Cl)cc4[nH]ncc34)C[C@@H]2C1` [Example 32, (2r,3aR,5s,6aS)-2-(6-chloro-1H-indazol-4-yl)octahydropentalene-2,5-diol] was run?
A: Its IC50 is 1 to 5 µM.

Q: And the IC50 [2]?
A: The IC50 was ≤ 0.5 µM.

Q: Which IC50 [1] does the source give for `CC1(C)[C@H]2CN(c3cc(C(F)(F)F)cn4cncc34)C[C@H]2CN1S(C)(=O)=O` (racemic) [Example 46, Racemic-8-((3aR,6aS)-4,4-dimethyl-5-(methylsulfonyl)hexahydropyrrolo[3,4-c]pyrrol-2(1H)-yl)-6-(trifluoromethyl)imidazo[1,5-a]pyridine] here?
A: The IC50 was > 5 µM.

Q: What about the IC50 [2] of the same compound?
A: Its IC50 is 1 to 5 µM.

Q: Which IC50 [1] does the source give for `O=C(c1ccccc1)N1C[C@@H]2C[C@@](O)(c3cc(Cl)cc4cn[nH]c34)C[C@@H]2C1` [Example 98, ((3aR,5r,6aS)-5-(5-chloro-1H-indazol-7-yl)-5-hydroxyhexahydrocyclopenta[c]pyrrol-2(1H)-yl)(phenyl)methanone] here?
A: Its IC50 is > 5 µM.

Q: And the IC50 [2]?
A: Its IC50 is > 5 µM.

Q: For `CS(=O)(=O)N1C[C@H]2CC(C(O)c3cc(Cl)cc4[nH]ncc34)C[C@H]2C1` (stereo partly drawn) [Example 105, (6-chloro-1H-indazol-4-yl)((3aR,6aS)-2-(methylsulfonyl)octahydrocyclopenta[c]pyrrol-5-yl)methanol], which IC50 [1] is on record?
A: Its IC50 is > 5 µM.

Q: And the IC50 [2]?
A: Its IC50 is ≤ 0.5 µM.

Q: With `O=C(N[C@H]1[C@@H]2C[C@@](O)(c3cc(Cl)cc4[nH]ncc34)C[C@@H]21)c1cnon1` [Example 159, N-((1R,3r,5S,6r)-3-(6-chloro-1H-indazol-4-yl)-3-hydroxybicyclo[3.1.0]hexan-6-yl)-1,2,5-oxadiazole-3-carboxamide] as the compound, how does the IC50 [1] read?
A: Its IC50 is > 5 µM.

Q: And the IC50 [2]?
A: The IC50 was ≤ 0.5 µM.

Q: `O=C(Cc1ccc(Cl)cc1)N[C@H]1[C@@H]2C[C@@](O)(c3cc(Cl)cc4[nH]ncc34)C[C@@H]21` [Example 149, N-((1R,3r,5S,6r)-3-(6-chloro-1H-indazol-4-yl)-3-hydroxybicyclo[3.1.0]hexan-6-yl)-2-(4-chlorophenyl)acetamide] was tested. Which IC50 [1] did it give?
A: The IC50 was ≤ 0.5 µM.

Q: What about the IC50 [2] of the same compound?
A: The IC50 was ≤ 0.5 µM.

Q: For `CC(=O)N1C[C@H]2CC(C(O)c3cc(Cl)cc4cn[nH]c34)C[C@H]2C1` (stereo partly drawn) [Example 112, 1-((3aR,6aS)-5-((5-chloro-1H-indazol-7-yl)(hydroxy)methyl)hexahydrocyclopenta[c]pyrrol-2(1H)-yl)ethanone], which IC50 [1] is on record?
A: The IC50 was 0.5 to 1 µM.

Q: And the IC50 [2]?
A: Its IC50 is > 5 µM.

Q: Which results are given for `COc1ccccc1-c1c[nH]cc1C(=O)N[C@H]1[C@@H]2C[C@@](O)(c3cc(Cl)cc4[nH]ncc34)C[C@@H]21` [Example 127, N-((1R,3r,5S,6r)-3-(6-chloro-1H-indazol-4-yl)-3-hydroxybicyclo[3.1.0]hexan-6-yl)-4-(2-methoxyphenyl)-1H-pyrrole-3-carboxamide]?
A: IC50 [1]: > 5 µM; IC50 [2]: ≤ 0.5 µM

Q: `O=C(N[C@H]1[C@@H]2C[C@@](O)(c3cc(Cl)cc4[nH]ncc34)C[C@@H]21)c1ccc(F)c(Br)c1` [Example 176, 3-bromo-N-((1R,3r,5S,6r)-3-(6-chloro-1H-indazol-4-yl)-3-hydroxybicyclo[3.1.0]hexan-6-yl)-4-fluorobenzamide] was tested. Which IC50 [1] did it give?
A: The IC50 was ≤ 0.5 µM.

Q: What about the IC50 [2] of the same compound?
A: Its IC50 is ≤ 0.5 µM.

Q: Which results are given for `O=C(N[C@H]1[C@@H]2C[C@@](O)(c3cc(Cl)cc4[nH]ncc34)C[C@@H]21)c1ccc(F)c(OC(F)(F)F)c1` [Example 180, N-((1R,3r,5S,6r)-3-(6-chloro-1H-indazol-4-yl)-3-hydroxybicyclo[3.1.0]hexan-6-yl)-4-fluoro-3-(trifluoromethoxy)benzamide]?
A: IC50 [1]: ≤ 0.5 µM; IC50 [2]: ≤ 0.5 µM

Q: Which results are given for `CC(=O)N1C[C@H]2CC(C(O)c3cc(Cl)cc4[nH]ncc34)C[C@H]2C1` (stereo partly drawn) [Example 104, 1-((3aR,6aS)-5-((6-chloro-1H-indazol-4-yl)(hydroxy)methyl)hexahydrocyclopenta[c]pyrrol-2(1H)-yl)ethanone]?
A: IC50 [1]: > 5 µM; IC50 [2]: 0.5 to 1 µM

Q: `O=C(N[C@H]1[C@@H]2C[C@@](O)(c3cc(Cl)cc4cn[nH]c34)C[C@@H]21)c1ccccc1` [Example 129, N-((1R,3r,5S,6r)-3-(5-chloro-1H-indazol-7-yl)-3-hydroxybicyclo[3.1.0]hexan-6-yl)benzamide] was tested. Which IC50 [1] did it give?
A: The IC50 was 1 to 5 µM.

Q: What about the IC50 [2] of the same compound?
A: The IC50 was 1 to 5 µM.

Q: For `O=C(N[C@H]1[C@@H]2C[C@@](O)(c3cc(Cl)cc4[nH]ncc34)C[C@@H]21)c1ccc(F)c(F)c1` [Example 168, N-((1R,3r,5S,6r)-3-(6-chloro-1H-indazol-4-yl)-3-hydroxybicyclo[3.1.0]hexan-6-yl)-3,4-difluorobenzamide], which IC50 [1] is on record?
A: The IC50 was ≤ 0.5 µM.

Q: What about the IC50 [2] of the same compound?
A: The IC50 was ≤ 0.5 µM.

Q: With `CNS(=O)(=O)N1C[C@@H]2C[C@@](O)(c3cc(Cl)cc4[nH]ncc34)C[C@@H]2C1` [Example 87, (3aR,5r,6aS)-5-(6-chloro-1H-indazol-4-yl)-5-hydroxy-N-methylhexahydrocyclopenta[c]pyrrole-2(1H)-sulfonamide] as the compound, how does the IC50 [1] read?
A: Its IC50 is 1 to 5 µM.

Q: What about the IC50 [2] of the same compound?
A: The IC50 was ≤ 0.5 µM.

Q: `O=C(c1nc2cc(Cl)ccc2[nH]1)N1C[C@@H]2C[C@@](O)(c3cc(Cl)cc4[nH]ncc34)C[C@@H]2C1` [Example 134, (5-chloro-1H-benzo[d]imidazol-2-yl)((3aR,5r,6aS)-5-(6-chloro-1H-indazol-4-yl)-5-hydroxyhexahydrocyclopenta[c]pyrrol-2(1H)-yl)methanone] was tested. Which IC50 [1] did it give?
A: The IC50 was 1 to 5 µM.

Q: What about the IC50 [2] of the same compound?
A: The IC50 was ≤ 0.5 µM.

Q: `N#Cc1cncc(C(=O)N[C@H]2[C@@H]3C[C@@](O)(c4cc(Cl)cc5[nH]ncc45)C[C@@H]32)c1` [Example 181, N-((1R,3r,5S,6r)-3-(6-chloro-1H-indazol-4-yl)-3-hydroxybicyclo[3.1.0]hexan-6-yl)-5-cyanonicotinamide] was tested. Which IC50 [1] did it give?
A: Its IC50 is ≤ 0.5 µM.

Q: What about the IC50 [2] of the same compound?
A: Its IC50 is ≤ 0.5 µM.

Q: What does the source list for `CC(=O)N1C[C@@H]2C[C@@](O)(c3c(Cl)ccc4cncn34)C[C@@H]2C1` [Example 7, 1-((3aR,5r,6aS)-5-(6-chloroimidazo[1,5-a]pyridin-5-yl)-5-hydroxyhexahydrocyclopenta[c]pyrrol-2(1H)-yl)ethanone]?
A: IC50 [1]: > 5 µM; IC50 [2]: > 5 µM

Q: `CC(=O)N1C[C@@H]2CN(c3cc(Cl)cc4cncn34)C[C@@H]2C1(C)C` (racemic) [Example 43, Racemic-1-((3aS,6aR)-5-(7-chloroimidazo[1,5-a]pyridin-5-yl)-1,1-dimethylhexahydropyrrolo[3,4-c]pyrrol-2(1H)-yl)ethanone] was tested. Which IC50 [1] did it give?
A: Its IC50 is > 5 µM.

Q: And the IC50 [2]?
A: The IC50 was > 5 µM.

Q: How did the IC50 [1] turn out when `NC(=O)c1cccc(C(=O)N[C@H]2[C@@H]3C[C@@](O)(c4cc(Cl)cc5[nH]ncc45)C[C@@H]32)c1` [Example 157, N1-((1R,3r,5S,6r)-3-(6-chloro-1H-indazol-4-yl)-3-hydroxybicyclo[3.1.0]hexan-6-yl)isophthalamide] was run?
A: The IC50 was > 5 µM.

Q: And the IC50 [2]?
A: Its IC50 is ≤ 0.5 µM.

Q: Which IC50 [1] does the source give for `CC(=O)N1C[C@@H]2C[C@@](O)(c3cc(Cl)cc4cn[nH]c34)C[C@@H]2C1` [Example 8, 1-((3aR,5r,6aS)-5-(5-chloro-1H-indazol-7-yl)-5-hydroxyhexahydrocyclopenta[c]pyrrol-2(1H)-yl)ethanone] here?
A: Its IC50 is > 5 µM.

Q: And the IC50 [2]?
A: Its IC50 is > 5 µM.

Q: Which IC50 [1] does the source give for `O=C(Cc1ccc(Cl)cc1)N1C[C@@H]2C[C@@](O)(c3cc(Cl)cc4[nH]ncc34)C[C@@H]2C1` [Example 175, 1-((3aR,5r,6aS)-5-(6-chloro-1H-indazol-4-yl)-5-hydroxyhexahydrocyclopenta[c]pyrrol-2(1H)-yl)-2-(4-chlorophenyl)ethanone] here?
A: Its IC50 is 1 to 5 µM.

Q: And the IC50 [2]?
A: Its IC50 is ≤ 0.5 µM.

Q: What does the source list for `O=C(Nc1cccc(Cl)c1)N[C@H]1[C@@H]2C[C@@](O)(c3cc(Cl)cc4[nH]ncc34)C[C@@H]21` [Example 122, 1-((1R,3r,5S,6r)-3-(6-chloro-1H-indazol-4-yl)-3-hydroxybicyclo[3.1.0]hexan-6-yl)-3-(3-chlorophenyl)urea]?
A: IC50 [1]: 1 to 5 µM; IC50 [2]: 1 to 5 µM
